Data: ChEMBL document CHEMBL5724914, “Linking interpersonal differences in gut microbiota composition and drug biotransformation activity” (2024)

Tests used:
[1] = The drug is tested on Z-026 corresponding to metagenome with ENA study accession number: PRJEB37062 and ENA sample accession number: ERS12561825 for biotransformation under anaerobic condition. The drug concentrations were measured over 9 timepoints collected between 0 and 24 hours of incubation by liquid-chromatography-coupled mass spectrometry (LC–MS); conditions: 2 µM
[2] = The drug is tested on Z-014 corresponding to rat gut metagenome with ENA study accession number: PRJEB37062 and ENA sample accession number: ERS12561814 for biotransformation under anaerobic condition. The drug concentrations were measured over 9 timepoints collected between 0 and 24 hours of incubation by liquid-chromatography-coupled mass spectrometry (LC–MS); conditions: 2 µM
[3] = The drug is tested on Z-012 corresponding to metagenome with ENA study accession number: PRJEB37062 and ENA sample accession number: ERS12561812 for biotransformation under anaerobic condition. The drug concentrations were measured over 9 timepoints collected between 0 and 24 hours of incubation by liquid-chromatography-coupled mass spectrometry (LC–MS); conditions: 2 µM
[4] = The drug is tested on Z-010 corresponding to metagenome with ENA study accession number: PRJEB37062 and ENA sample accession number: ERS12561810 for biotransformation under anaerobic condition. The drug concentrations were measured over 9 timepoints collected between 0 and 24 hours of incubation by liquid-chromatography-coupled mass spectrometry (LC–MS); conditions: 2 µM
[5] = The drug is tested on Z-008 corresponding to metagenome with ENA study accession number: PRJEB37062 and ENA sample accession number: ERS12561808 for biotransformation under anaerobic condition. The drug concentrations were measured over 9 timepoints collected between 0 and 24 hours of incubation by liquid-chromatography-coupled mass spectrometry (LC–MS); conditions: 2 µM
[6] = The drug is tested on Z-006 corresponding to mouse gut metagenome with ENA study accession number: PRJEB37062 and ENA sample accession number: ERS12561806 for biotransformation under anaerobic condition. The drug concentrations were measured over 9 timepoints collected between 0 and 24 hours of incubation by liquid-chromatography-coupled mass spectrometry (LC–MS); conditions: 2 µM
[7] = The drug is tested on Z-003 corresponding to pig gut metagenome with ENA study accession number: PRJEB37062 and ENA sample accession number: ERS12561803 for biotransformation under anaerobic condition. The drug concentrations were measured over 9 timepoints collected between 0 and 24 hours of incubation by liquid-chromatography-coupled mass spectrometry (LC–MS); conditions: 2 µM
[8] = The drug is tested on WLS-310 corresponding to human gut metagenome with ENA study accession number: PRJEB37062 and ENA sample accession number: ERS12561785 for biotransformation under anaerobic condition. The drug concentrations were measured over 9 timepoints collected between 0 and 24 hours of incubation by liquid-chromatography-coupled mass spectrometry (LC–MS); conditions: 2 µM
[9] = The drug is tested on WLS-098 corresponding to human gut metagenome with ENA study accession number: PRJEB37062 and ENA sample accession number: ERS12561754 for biotransformation under anaerobic condition. The drug concentrations were measured over 9 timepoints collected between 0 and 24 hours of incubation by liquid-chromatography-coupled mass spectrometry (LC–MS); conditions: 2 µM
[10] = The drug is tested on WLS-077 corresponding to human gut metagenome with ENA study accession number: PRJEB37062 and ENA sample accession number: ERS12561750 for biotransformation under anaerobic condition. The drug concentrations were measured over 9 timepoints collected between 0 and 24 hours of incubation by liquid-chromatography-coupled mass spectrometry (LC–MS); conditions: 2 µM
[11] = The drug is tested on WLS-010 corresponding to human gut metagenome with ENA study accession number: PRJEB37062 and ENA sample accession number: ERS12561743 for biotransformation under anaerobic condition. The drug concentrations were measured over 9 timepoints collected between 0 and 24 hours of incubation by liquid-chromatography-coupled mass spectrometry (LC–MS); conditions: 2 µM
[12] = human gut metagenome, 24 h, 2 µM
[13] = human gut metagenome, 24 h, 2 µM; remark: listed apart in the source
[14] = human gut metagenome, 24 h, 2 µM; remark: listed apart in the source
[15] = human gut metagenome, 24 h, 2 µM; remark: listed apart in the source
[16] = human gut metagenome, 24 h, 2 µM; remark: listed apart in the source
[17] = human gut metagenome, 24 h, 2 µM; remark: listed apart in the source
[18] = human gut metagenome, 24 h, 2 µM; remark: listed apart in the source
[19] = human gut metagenome, 24 h, 2 µM; remark: listed apart in the source
[20] = human gut metagenome, 24 h, 2 µM; remark: listed apart in the source
Note: call rule not given here.

Row | SMILES | Bacterial Biotransformation [1] | Bacterial Biotransformation [2] | Bacterial Biotransformation [3] | Bacterial Biotransformation [4] | Bacterial Biotransformation [5] | Bacterial Biotransformation [6] | Bacterial Biotransformation [7] | Bacterial Biotransformation [8] | Bacterial Biotransformation [9] | Bacterial Biotransformation [10] | Bacterial Biotransformation [11] | Bacterial Biotransformation [12] | Bacterial Biotransformation [13] | Bacterial Biotransformation [14] | Bacterial Biotransformation [15] | Bacterial Biotransformation [16] | Bacterial Biotransformation [17] | Bacterial Biotransformation [18] | Bacterial Biotransformation [19] | Bacterial Biotransformation [20]
1 | CC(=O)OCC(=O)[C@@]12N=C(C)O[C@@H]1C[C@H]1[C@@H]3CCC4=CC(=O)C=C[C@]4(C)[C@H]3[C@@H](O)C[C@@]12C [DEFLAZACORT] | Compound metabolized | Compound metabolized | Compound metabolized | Compound metabolized | Compound metabolized | Compound metabolized | Compound metabolized | Compound metabolized | Compound metabolized | Compound metabolized | Compound metabolized | Compound metabolized | Compound metabolized | Compound metabolized | Compound metabolized | Compound metabolized | Compound metabolized | Compound metabolized | Compound metabolized | Compound metabolized
2 | CN(C)CC(c1ccc(O)cc1)C1(O)CCCCC1.O=C(O)CCC(=O)O (stereo not given) [DESVENLAFAXINE SUCCINATE] | Compound NOT metabolized | Compound NOT metabolized | Compound NOT metabolized | Compound NOT metabolized | Compound NOT metabolized | Compound NOT metabolized | Compound NOT metabolized | Compound NOT metabolized | Compound NOT metabolized | Compound NOT metabolized | Compound NOT metabolized | Compound NOT metabolized | Compound NOT metabolized | Compound NOT metabolized | Compound NOT metabolized | Compound NOT metabolized | Compound NOT metabolized | Compound NOT metabolized | Compound NOT metabolized | Compound NOT metabolized
3 | CN1CCN(C(=O)O[C@H]2c3nccnc3C(=O)N2c2ccc(Cl)cn2)CC1 [ESZOPICLONE] | Compound NOT metabolized | Compound NOT metabolized | Compound NOT metabolized | Compound NOT metabolized | Compound NOT metabolized | Compound NOT metabolized | Compound NOT metabolized | Compound NOT metabolized | Compound NOT metabolized | Compound NOT metabolized | Compound NOT metabolized | Compound NOT metabolized | Compound NOT metabolized | Compound NOT metabolized | Compound NOT metabolized | Compound NOT metabolized | Compound NOT metabolized | Compound NOT metabolized | Compound NOT metabolized | Compound NOT metabolized
4 | O=C1[C@H](CC[C@H](O)c2ccc(F)cc2)[C@@H](c2ccc(O)cc2)N1c1ccc(F)cc1 [EZETIMIBE] | Compound NOT metabolized | Compound NOT metabolized | Compound NOT metabolized | Compound NOT metabolized | Compound NOT metabolized | Compound NOT metabolized | Compound NOT metabolized | Compound NOT metabolized | Compound metabolized | Compound metabolized | Compound metabolized | Compound metabolized | Compound metabolized | Compound NOT metabolized | Compound NOT metabolized | Compound NOT metabolized | Compound NOT metabolized | Compound metabolized | Compound NOT metabolized | Compound NOT metabolized
5 | CC(C)OC(=O)C(C)(C)Oc1ccc(C(=O)c2ccc(Cl)cc2)cc1 [FENOFIBRATE] | Compound metabolized | Compound metabolized | Compound metabolized | Compound metabolized | Compound metabolized | Compound metabolized | Compound metabolized | Compound metabolized | Compound metabolized | Compound NOT metabolized | Compound NOT metabolized | Compound metabolized | Compound NOT metabolized | Compound metabolized | Compound metabolized | Compound metabolized | Compound NOT metabolized | Compound metabolized | Compound metabolized | Compound metabolized
6 | O=C1NCC2(CCN(CCc3ccccc3)CC2)O1 [FENSPIRIDE] | Compound NOT metabolized | Compound NOT metabolized | Compound NOT metabolized | Compound NOT metabolized | Compound NOT metabolized | Compound NOT metabolized | Compound NOT metabolized | Compound NOT metabolized | Compound NOT metabolized | Compound NOT metabolized | Compound NOT metabolized | Compound NOT metabolized | Compound NOT metabolized | Compound NOT metabolized | Compound NOT metabolized | Compound NOT metabolized | Compound NOT metabolized | Compound metabolized | Compound NOT metabolized | Compound NOT metabolized
